Measured values reported in ChEMBL document CHEMBL4152360 (Bioorg Med Chem, 2018).
Calls of active or inactive are those of the source. No cut-off for these calls is given here.

Assays:
[1] = biological target: T1, Casein kinase II subunit alpha (Homo sapiens, UniProt P68400); assay: Displacement of ARC-1504/ARC-1513-5O from CK2alpha (unknown origin) (1 to 335 residues) after 15 to 60 mins by luminescence assay
[2] = biological target: T1, Casein kinase II subunit alpha; assay: Displacement of 5-TAMRA-labeled ARC-1530 from CK2alpha (unknown origin) (1 to 335 residues) after 15 to 60 mins by luminescence assay
Target sequence in this assay (P68400 whole entry, looked up, the tested form may be a part): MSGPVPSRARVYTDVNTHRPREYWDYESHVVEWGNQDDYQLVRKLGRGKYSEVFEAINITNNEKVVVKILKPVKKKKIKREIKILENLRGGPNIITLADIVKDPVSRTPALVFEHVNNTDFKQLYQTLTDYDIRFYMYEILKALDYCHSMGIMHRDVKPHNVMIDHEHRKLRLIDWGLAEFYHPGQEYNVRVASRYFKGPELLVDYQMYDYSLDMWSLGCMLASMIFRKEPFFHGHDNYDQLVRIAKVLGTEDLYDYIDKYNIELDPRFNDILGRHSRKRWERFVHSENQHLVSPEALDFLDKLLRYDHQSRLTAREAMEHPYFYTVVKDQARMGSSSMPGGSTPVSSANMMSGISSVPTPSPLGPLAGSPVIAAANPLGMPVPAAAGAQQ

[3] = biological target: T1, Casein kinase II subunit alpha; assay: Inhibition of human CK2alpha assessed as enzyme residual activity at 100 nM by radiometric filter binding assay relative to control
Target sequence in this assay (P68400 whole entry, looked up, the tested form may be a part): as above

[4] = biological target: Dual specificity tyrosine-phosphorylation-regulated kinase 1A (Homo sapiens) (UniProt Q13627); assay: Inhibition of human DYRK1alpha assessed as enzyme residual activity at 100 nM by radiometric filter binding assay relative to control
[5] = biological target: Glycogen synthase kinase-3 beta (Homo sapiens) (UniProt P49841); assay: Inhibition of human GSK3beta assessed as enzyme residual activity at 100 nM by radiometric filter binding assay relative to control
Glycogen synthase kinase-3 beta (Homo sapiens), sequence (P49841 whole entry, looked up): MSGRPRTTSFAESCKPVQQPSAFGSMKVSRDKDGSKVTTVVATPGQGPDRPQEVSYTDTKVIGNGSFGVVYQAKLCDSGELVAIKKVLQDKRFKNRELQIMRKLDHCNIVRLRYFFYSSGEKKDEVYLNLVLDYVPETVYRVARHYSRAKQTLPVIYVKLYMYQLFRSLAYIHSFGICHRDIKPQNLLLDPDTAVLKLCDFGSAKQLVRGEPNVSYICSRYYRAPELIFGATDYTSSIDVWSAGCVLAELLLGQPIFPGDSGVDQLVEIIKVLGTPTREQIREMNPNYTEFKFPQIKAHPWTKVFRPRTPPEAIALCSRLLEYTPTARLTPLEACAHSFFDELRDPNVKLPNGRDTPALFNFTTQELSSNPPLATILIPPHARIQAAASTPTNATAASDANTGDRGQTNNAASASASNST

[6] = biological target: Myosin light chain kinase, smooth muscle (Homo sapiens) (UniProt Q15746); assay: Inhibition of human SmMLCK assessed as enzyme residual activity at 100 nM by radiometric filter binding assay relative to control
[7] = biological target: AMP-activated protein kinase, AMPK (Homo sapiens) (UniProt P54646+O43741+P54619+Q9UGJ0+Q9Y478+Q13131+Q9UGI9); assay: Inhibition of human AMPK assessed as enzyme residual activity at 100 nM by radiometric filter binding assay relative to control; assay type: protein-complex assay
[8] = biological target: Mitogen-activated protein kinase kinase kinase 11 (Homo sapiens) (UniProt Q16584); assay: Inhibition of human MLK3 assessed as enzyme residual activity at 100 nM by radiometric filter binding assay relative to control
Mitogen-activated protein kinase kinase kinase 11 (Homo sapiens), sequence (Q16584 whole entry, looked up): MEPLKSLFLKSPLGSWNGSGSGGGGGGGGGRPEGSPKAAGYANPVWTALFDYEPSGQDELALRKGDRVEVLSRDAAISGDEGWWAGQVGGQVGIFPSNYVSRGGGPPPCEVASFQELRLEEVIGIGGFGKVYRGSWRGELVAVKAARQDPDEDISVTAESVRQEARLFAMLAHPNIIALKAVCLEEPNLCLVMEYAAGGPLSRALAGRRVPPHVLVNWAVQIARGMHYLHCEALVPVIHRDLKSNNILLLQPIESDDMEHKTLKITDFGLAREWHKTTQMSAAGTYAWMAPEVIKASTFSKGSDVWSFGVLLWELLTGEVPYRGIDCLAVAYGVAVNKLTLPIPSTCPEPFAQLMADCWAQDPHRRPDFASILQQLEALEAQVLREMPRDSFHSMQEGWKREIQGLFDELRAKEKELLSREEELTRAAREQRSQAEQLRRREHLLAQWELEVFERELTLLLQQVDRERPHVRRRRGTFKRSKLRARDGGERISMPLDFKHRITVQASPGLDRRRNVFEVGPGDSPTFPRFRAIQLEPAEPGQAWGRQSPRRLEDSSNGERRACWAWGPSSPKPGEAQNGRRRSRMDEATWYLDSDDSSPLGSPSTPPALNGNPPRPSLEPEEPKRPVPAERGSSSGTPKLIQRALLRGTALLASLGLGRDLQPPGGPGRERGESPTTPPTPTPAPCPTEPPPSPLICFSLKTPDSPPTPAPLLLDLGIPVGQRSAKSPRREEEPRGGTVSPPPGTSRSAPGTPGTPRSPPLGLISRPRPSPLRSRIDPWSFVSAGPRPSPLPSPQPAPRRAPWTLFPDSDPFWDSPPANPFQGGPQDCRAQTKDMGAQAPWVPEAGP

[9] = biological target: Serine/threonine-protein kinase PLK1 (Homo sapiens) (UniProt P53350); assay: Inhibition of human PLK1 assessed as enzyme residual activity at 100 nM by radiometric filter binding assay relative to control
[10] = biological target: Receptor-interacting serine/threonine-protein kinase 2 (Homo sapiens) (UniProt O43353); assay: Inhibition of human RIPK2 assessed as enzyme residual activity at 100 nM by radiometric filter binding assay relative to control
[11] = biological target: Tyrosine-protein kinase JAK3 (Homo sapiens) (UniProt P52333); assay: Inhibition of human JAK3 assessed as enzyme residual activity at 100 nM by radiometric filter binding assay relative to control
Tyrosine-protein kinase JAK3 (Homo sapiens), sequence (P52333 whole entry): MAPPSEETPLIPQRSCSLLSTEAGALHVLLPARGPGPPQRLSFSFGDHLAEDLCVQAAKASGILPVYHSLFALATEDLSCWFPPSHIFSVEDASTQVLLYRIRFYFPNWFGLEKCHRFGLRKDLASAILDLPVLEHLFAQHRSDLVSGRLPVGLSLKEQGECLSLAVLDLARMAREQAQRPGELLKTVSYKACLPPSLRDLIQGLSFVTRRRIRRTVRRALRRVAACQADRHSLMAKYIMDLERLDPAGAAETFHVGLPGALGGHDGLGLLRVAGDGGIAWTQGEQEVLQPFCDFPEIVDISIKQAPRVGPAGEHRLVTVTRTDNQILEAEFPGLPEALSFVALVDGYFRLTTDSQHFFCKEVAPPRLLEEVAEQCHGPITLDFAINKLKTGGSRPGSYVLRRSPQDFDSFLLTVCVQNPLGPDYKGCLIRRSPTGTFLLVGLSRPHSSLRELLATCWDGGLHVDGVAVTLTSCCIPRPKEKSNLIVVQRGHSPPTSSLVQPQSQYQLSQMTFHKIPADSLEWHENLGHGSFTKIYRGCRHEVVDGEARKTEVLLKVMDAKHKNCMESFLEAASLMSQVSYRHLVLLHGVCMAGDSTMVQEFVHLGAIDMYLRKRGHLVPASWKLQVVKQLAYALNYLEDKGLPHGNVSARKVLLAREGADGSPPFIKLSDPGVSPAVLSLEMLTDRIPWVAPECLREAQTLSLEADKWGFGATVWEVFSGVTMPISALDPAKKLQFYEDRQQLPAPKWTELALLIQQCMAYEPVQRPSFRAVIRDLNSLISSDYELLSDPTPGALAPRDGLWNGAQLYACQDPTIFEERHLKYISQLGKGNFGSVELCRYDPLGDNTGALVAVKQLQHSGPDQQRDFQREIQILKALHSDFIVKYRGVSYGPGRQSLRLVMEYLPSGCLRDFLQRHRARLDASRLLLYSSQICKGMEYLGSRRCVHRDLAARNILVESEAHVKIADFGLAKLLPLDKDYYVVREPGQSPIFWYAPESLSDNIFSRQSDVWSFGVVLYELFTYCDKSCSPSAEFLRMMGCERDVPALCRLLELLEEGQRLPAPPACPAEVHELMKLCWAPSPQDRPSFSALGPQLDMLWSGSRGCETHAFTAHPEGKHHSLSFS

[12] = biological target: Dual specificity protein kinase TTK (Homo sapiens) (UniProt P33981); assay: Inhibition of human TTK assessed as enzyme residual activity at 100 nM by radiometric filter binding assay relative to control
[13] = biological target: Mitogen-activated protein kinase 8 (Homo sapiens) (UniProt P45983); assay: Inhibition of human JNK1 assessed as enzyme residual activity at 100 nM by radiometric filter binding assay relative to control
[14] = biological target: Vascular endothelial growth factor receptor 1 (Homo sapiens) (UniProt P17948); assay: Inhibition of human VEGFR1 assessed as enzyme residual activity at 100 nM by radiometric filter binding assay relative to control
[15] = biological target: Dual specificity mitogen-activated protein kinase kinase 1 (Homo sapiens) (UniProt Q02750); assay: Inhibition of human MKK1 assessed as enzyme residual activity at 100 nM by radiometric filter binding assay relative to control
[16] = biological target: Serine/threonine-protein kinase pim-1 (Homo sapiens) (UniProt P11309); assay: Inhibition of human PIM1 assessed as enzyme residual activity at 100 nM by radiometric filter binding assay relative to control
[17] = biological target: Serine/threonine-protein kinase Chk2 (Homo sapiens) (UniProt O96017); assay: Inhibition of human CHK2 assessed as enzyme residual activity at 100 nM by radiometric filter binding assay relative to control
Serine/threonine-protein kinase Chk2 (Homo sapiens), sequence (O96017 whole entry): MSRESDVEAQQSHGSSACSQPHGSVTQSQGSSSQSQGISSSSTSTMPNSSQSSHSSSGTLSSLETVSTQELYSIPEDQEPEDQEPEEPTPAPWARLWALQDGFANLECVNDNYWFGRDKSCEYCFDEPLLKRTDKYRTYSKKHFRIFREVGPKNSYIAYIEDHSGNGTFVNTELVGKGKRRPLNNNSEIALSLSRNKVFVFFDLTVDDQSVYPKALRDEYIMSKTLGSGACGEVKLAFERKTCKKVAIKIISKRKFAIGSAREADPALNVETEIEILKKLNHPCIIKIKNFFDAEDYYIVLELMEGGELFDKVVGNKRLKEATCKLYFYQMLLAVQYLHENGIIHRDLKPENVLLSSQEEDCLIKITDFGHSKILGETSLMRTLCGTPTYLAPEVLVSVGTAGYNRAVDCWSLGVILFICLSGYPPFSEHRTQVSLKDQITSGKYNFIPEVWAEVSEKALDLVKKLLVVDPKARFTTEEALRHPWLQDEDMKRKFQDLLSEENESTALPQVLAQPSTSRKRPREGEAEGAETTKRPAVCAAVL

[18] = biological target: Serine/threonine-protein kinase Sgk1 (Homo sapiens) (UniProt O00141); assay: Inhibition of human SGK1 assessed as enzyme residual activity at 100 nM by radiometric filter binding assay relative to control
[19] = biological target: Proto-oncogene tyrosine-protein kinase LCK (Mus musculus) (UniProt P06240); assay: Inhibition of mouse Lck assessed as enzyme residual activity at 100 nM by radiometric filter binding assay relative to control
[20] = biological target: Serine/threonine-protein kinase PAK 4 (Homo sapiens) (UniProt O96013); assay: Inhibition of human PAK4 assessed as enzyme residual activity at 100 nM by radiometric filter binding assay relative to control
[21] = biological target: Interleukin-1 receptor-associated kinase 4 (Homo sapiens) (UniProt Q9NWZ3); assay: Inhibition of human IRAK4 assessed as enzyme residual activity at 100 nM by radiometric filter binding assay relative to control
[22] = biological target: Mitogen-activated protein kinase 14 (Homo sapiens) (UniProt Q16539); assay: Inhibition of human p38alpha MAPK assessed as enzyme residual activity at 100 nM by radiometric filter binding assay relative to control
[23] = biological target: Ribosomal protein S6 kinase beta-1 (Homo sapiens) (UniProt P23443); assay: Inhibition of human S6K1 assessed as enzyme residual activity at 100 nM by radiometric filter binding assay relative to control
[24] = biological target: Ephrin type-A receptor 2 (Homo sapiens) (UniProt P29317); assay: Inhibition of human EPHA2 assessed as enzyme residual activity at 100 nM by radiometric filter binding assay relative to control
[25] = biological target: Serine/threonine-protein kinase STK11 (Homo sapiens) (UniProt Q15831); assay: Inhibition of human LKB1 assessed as enzyme residual activity at 100 nM by radiometric filter binding assay relative to control
[26] = biological target: Serine/threonine-protein kinase N2 (Homo sapiens) (UniProt Q16513); assay: Inhibition of human PRK2 assessed as enzyme residual activity at 100 nM by radiometric filter binding assay relative to control
[27] = biological target: Calcium/calmodulin-dependent protein kinase type 1 (Homo sapiens) (UniProt Q14012); assay: Inhibition of human CaMK1alpha assessed as enzyme residual activity at 100 nM by radiometric filter binding assay relative to control
Calcium/calmodulin-dependent protein kinase type 1 (Homo sapiens), sequence (Q14012 whole entry, looked up): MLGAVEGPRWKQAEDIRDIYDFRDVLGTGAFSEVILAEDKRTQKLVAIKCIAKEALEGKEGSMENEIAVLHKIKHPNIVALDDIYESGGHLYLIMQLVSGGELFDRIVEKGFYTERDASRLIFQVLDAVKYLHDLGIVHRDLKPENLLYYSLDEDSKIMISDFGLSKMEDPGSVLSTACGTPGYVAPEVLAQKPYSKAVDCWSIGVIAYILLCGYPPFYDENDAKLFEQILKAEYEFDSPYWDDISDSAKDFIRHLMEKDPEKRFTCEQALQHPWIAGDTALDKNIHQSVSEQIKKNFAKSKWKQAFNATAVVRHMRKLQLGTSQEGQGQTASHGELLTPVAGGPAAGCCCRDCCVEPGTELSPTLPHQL

[28] = biological target: 3-phosphoinositide-dependent protein kinase 1 (Homo sapiens) (UniProt O15530); assay: Inhibition of human PDK1 assessed as enzyme residual activity at 100 nM by radiometric filter binding assay relative to control
[29] = biological target: Receptor tyrosine-protein kinase erbB-4 (Homo sapiens) (UniProt Q15303); assay: Inhibition of human HER4 assessed as enzyme residual activity at 100 nM by radiometric filter binding assay relative to control
Receptor tyrosine-protein kinase erbB-4 (Homo sapiens), sequence (Q15303 whole entry): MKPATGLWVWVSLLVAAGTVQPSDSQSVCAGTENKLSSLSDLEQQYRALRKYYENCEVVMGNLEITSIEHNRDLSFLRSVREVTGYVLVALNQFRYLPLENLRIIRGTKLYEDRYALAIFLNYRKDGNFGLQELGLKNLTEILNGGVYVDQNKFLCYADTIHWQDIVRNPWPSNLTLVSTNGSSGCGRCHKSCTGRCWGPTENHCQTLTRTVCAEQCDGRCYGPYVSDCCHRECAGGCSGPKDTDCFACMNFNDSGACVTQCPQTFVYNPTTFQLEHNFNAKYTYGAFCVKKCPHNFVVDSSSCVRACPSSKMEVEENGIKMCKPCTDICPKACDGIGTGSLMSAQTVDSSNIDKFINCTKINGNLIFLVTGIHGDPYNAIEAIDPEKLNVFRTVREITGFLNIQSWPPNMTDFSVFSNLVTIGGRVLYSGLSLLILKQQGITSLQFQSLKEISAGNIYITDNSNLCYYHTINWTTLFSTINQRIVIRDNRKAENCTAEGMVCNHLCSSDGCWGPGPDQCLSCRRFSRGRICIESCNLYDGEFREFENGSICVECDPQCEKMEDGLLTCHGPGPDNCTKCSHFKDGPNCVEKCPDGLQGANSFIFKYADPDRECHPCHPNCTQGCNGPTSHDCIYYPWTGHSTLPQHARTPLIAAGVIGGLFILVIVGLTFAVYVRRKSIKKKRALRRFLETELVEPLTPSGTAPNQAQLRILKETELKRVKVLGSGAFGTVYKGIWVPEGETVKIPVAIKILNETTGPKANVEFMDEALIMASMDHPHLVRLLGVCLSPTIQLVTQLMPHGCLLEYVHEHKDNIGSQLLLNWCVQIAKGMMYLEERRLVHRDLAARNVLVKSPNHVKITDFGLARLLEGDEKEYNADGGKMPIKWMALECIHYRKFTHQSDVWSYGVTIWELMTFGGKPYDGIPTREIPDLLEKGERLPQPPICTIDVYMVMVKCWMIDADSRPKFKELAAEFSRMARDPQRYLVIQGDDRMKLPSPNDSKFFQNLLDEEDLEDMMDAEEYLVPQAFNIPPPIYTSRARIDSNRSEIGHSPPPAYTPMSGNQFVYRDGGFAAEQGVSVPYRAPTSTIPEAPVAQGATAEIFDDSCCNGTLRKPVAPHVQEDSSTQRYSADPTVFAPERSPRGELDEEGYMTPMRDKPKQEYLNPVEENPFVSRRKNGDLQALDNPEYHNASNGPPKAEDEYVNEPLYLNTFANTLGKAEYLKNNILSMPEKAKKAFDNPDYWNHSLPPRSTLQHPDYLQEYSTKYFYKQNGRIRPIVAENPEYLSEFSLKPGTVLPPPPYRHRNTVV

[30] = biological target: Aurora kinase B (Homo sapiens) (UniProt Q96GD4); assay: Inhibition of human AurB assessed as enzyme residual activity at 100 nM by radiometric filter binding assay relative to control
[31] = biological target: Insulin-like growth factor 1 receptor (Homo sapiens) (UniProt P08069); assay: Inhibition of human IGF1R assessed as enzyme residual activity at 100 nM by radiometric filter binding assay relative to control
[32] = biological target: Serine/threonine-protein kinase D1 (Homo sapiens) (UniProt Q15139); assay: Inhibition of human PKD1 assessed as enzyme residual activity at 100 nM by radiometric filter binding assay relative to control

NCCCC[C@@H](NC(=O)[C@@H](CC(=O)O)NC(=O)[C@@H](CC(=O)O)NC(=O)[C@@H](CC(=O)O)NC(=O)[C@@H](CC(=O)O)NC(=O)[C@@H](CC(=O)O)NC(=O)[C@@H](CC(=O)O)NC(=O)CCCCCNC(=O)CCC(=O)Nc1ncc(-c2ccc(C(=O)O)cc2)s1)C(=O)O
Kd [1]: 0.58 nM
Activity [2]: Active
Activity [3]: 1.9%
Activity [4]: 11.5%
Activity [5]: 19%
Activity [6]: 68%
Activity [7]: 69%
Activity [8]: 69%
Activity [9]: 83%
Activity [10]: 85%
Activity [11]: 85%
Activity [12]: 85%
Activity [13]: 86%
Activity [14]: 87%
Activity [15]: 88%
Activity [16]: 91%
Activity [17]: 96%
Activity [18]: 97%
Activity [19]: 101%
Activity [20]: 101%
Activity [21]: 102%
Activity [22]: 102%
Activity [23]: 104%
Activity [24]: 107%
Activity [25]: 107%
Activity [26]: 109%
Activity [27]: 111%
Activity [28]: 111%
Activity [29]: 113%
Activity [30]: 129%
Activity [31]: 143%
Activity [32]: 117%
